Measured values from article PMC6332449, “Pharmacological Validation of N-Myristoyltransferase as a Drug Target in Leishmania donovani” (ACS Infectious Diseases, 2018).
Read-outs that look alike come from different tables or passages of the source.

Experiments:
Trypanosoma brucei [1] = system: Trypanosoma brucei; set-up: method as in PMID 20360736; settings: cited from earlier work
[2] = system: Trypanosoma brucei N-myristoyltransferase (TbNMT); settings: cited from earlier work
Trypanosoma brucei [3] = settings: cited from earlier work
[4] = system: L. donovani intracellular amastigotes; experiment: L. donovani intramacrophage (intracellular amastigote) assay; format: cell-based, Leishmania donovani; settings: read-out: intramacrophage EC50
Protocol: (§1) The clonal L. donovani cell line LdBOB (derived from MHOM/SD/62/1S-CL2D) was used in our in vitro compound screening and mechanism of action studies. Promastigotes were grown at 26 °C in modified M199 media with axenic amastigotes grown at 37 °C, as previously described.[35] All animal studies were carried using L. donovani (LV9; WHO designation: MHOM/ET/67/HU3).
(§2) These assays were carried out as previously described.[25],[36],[37]

L. major NMT (LmNMT) = biological target: T1, L. major NMT (LmNMT) (Leishmania major, UniProt Q4Q5S8); experiment: LmNMT enzymatic assay (scintillation proximity, [3H]myristoyl-CoA, CAP5.5 peptide); format: biochemical
T1 construct: Recombinant LmNMT was expressed and purified as previously described; made in house
T1 sequence (Q4Q5S8 entry or part of it): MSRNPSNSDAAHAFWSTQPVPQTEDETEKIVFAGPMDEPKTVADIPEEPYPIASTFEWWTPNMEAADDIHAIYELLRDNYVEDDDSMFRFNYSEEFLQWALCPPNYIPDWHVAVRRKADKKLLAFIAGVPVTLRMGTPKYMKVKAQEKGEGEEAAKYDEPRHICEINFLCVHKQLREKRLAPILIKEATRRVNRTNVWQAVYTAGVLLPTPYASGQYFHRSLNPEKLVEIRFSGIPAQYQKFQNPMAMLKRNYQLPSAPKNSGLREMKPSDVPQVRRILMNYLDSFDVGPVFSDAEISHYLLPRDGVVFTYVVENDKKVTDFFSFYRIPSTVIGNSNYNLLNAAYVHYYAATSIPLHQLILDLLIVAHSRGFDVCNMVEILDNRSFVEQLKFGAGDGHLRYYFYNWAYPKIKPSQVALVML

[5] = system: L. donovani axenic amastigotes; experiment: L. donovani axenic amastigote compound sensitivity assay; format: cell-based, Leishmania donovani; settings: read-out: axenic amastigote EC50
Protocol: as §1, §2

THP-1 = THP-1 host cell toxicity in the intramacrophage assay; format: cell-based
Protocol: as §2

[6] = system: L. donovani promastigotes; experiment: L. donovani promastigote compound sensitivity assay; format: cell-based, Leishmania donovani; settings: read-out: promastigote EC50
Protocol: as §1, §2

[7] = system: intracellular amastigote form of T. cruzi; experiment: T. cruzi intracellular amastigote assay; format: cell-based; settings: Trypanosoma cruzi; read-out: EC50 against T. cruzi intracellular amastigotes
[8] = system: L. donovani amastigotes (LV9); experiment: mouse model of VL (BALB/c mice infected with L. donovani LV9)
Vero cells = experiment: host Vero cell toxicity; format: cell-based; settings: Chlorocebus sabaeus, read-out: EC50 against host Vero cells
human NMT (HsNMT) = biological target: T2, human NMT (HsNMT) (Homo sapiens, UniProt P30419); experiment: counter-screen against human NMT; format: biochemical
T2 sequence (P30419 1-496): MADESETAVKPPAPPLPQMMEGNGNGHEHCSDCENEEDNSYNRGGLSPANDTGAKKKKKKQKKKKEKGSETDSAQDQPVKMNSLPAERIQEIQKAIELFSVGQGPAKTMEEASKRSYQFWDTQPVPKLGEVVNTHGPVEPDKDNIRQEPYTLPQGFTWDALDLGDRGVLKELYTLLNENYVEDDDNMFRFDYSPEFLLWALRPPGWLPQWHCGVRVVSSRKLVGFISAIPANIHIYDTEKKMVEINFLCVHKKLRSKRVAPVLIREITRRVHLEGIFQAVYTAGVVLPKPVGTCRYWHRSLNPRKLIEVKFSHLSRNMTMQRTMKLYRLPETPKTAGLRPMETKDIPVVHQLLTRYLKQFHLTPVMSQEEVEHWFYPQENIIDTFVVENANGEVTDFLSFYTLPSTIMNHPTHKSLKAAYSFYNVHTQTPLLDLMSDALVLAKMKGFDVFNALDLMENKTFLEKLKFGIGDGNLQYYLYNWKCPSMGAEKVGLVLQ

[9] = Homo sapiens, THP-1, read-out: THP-1 EC50
[10] = Leishmania donovani, L. donovani intracellular amastigotes
[11] = Leishmania donovani, L. donovani LdBOB
[12] = Homo sapiens, THP-1; read-out: THP-1 EC50

| EC50 [4, 10] | IC50 (L. major NMT (LmNMT)) | EC50 [5, 11] | IC50 (human NMT (HsNMT)) | EC50 [6, 11] | Compound | EC50 (THP-1; [12]) | other results |
| --- | --- | --- | --- | --- | --- | --- | --- |
| – | – | – | – | – | Cc1nn(C)c(C)c1NS(=O)(=O)c1c(Cl)cc(-c2ccnc(N3CCNCC3)c2)cc1Cl [DDD85646] | – | efficacy in mouse models of stage 1 HAT (in words) (Trypanosoma brucei [1]): curative; inhibition of TbNMT (in words) [2]: low nM inhibitor; activity in the stage 2 HAT mouse model (in words) (Trypanosoma brucei [3]): not active |
| – | – | – | – | – | Cc1nn(C)c(C)c1N[S+](=O)([O-])c1ccc(CCCC2CCNCC2)cc1 [compound 1] | – | EC50 ([4]; L. donovani intracellular amastigotes): > 50 µM; IC50 (L. major NMT (LmNMT); 5 nM LmNMT, 0.5 μM CAP5.5, 0.125 μM myristoyl-CoA, read-out: LmNMT IC50): 0.4 µM; EC50 ([5]; L. donovani LdBOB): > 50 µM; EC50 (THP-1; read-out: THP-1 EC50): > 50 µM; EC50 ([6]; L. donovani LdBOB): > 50 µM |
| – | – | – | – | – | Cc1nn(C)c(C)c1N(C(F)F)S(=O)(=O)c1c(Cl)cc(CCCC2CCN(C)CC2)cc1Cl [compound 2] | – | EC50 ([4]; Leishmania donovani): 2.4 ± 0.8 µM; EC50 ([5]; Leishmania donovani): 0.2 ± 0.006 µM; EC50 [7]: 0.47 µM; EC50 (THP-1; [9]): 15.8 µM; EC50 ([6]; Leishmania donovani): 0.04 ± 0.001 µM; efficacy in the stage 2 mouse model (in words) (Trypanosoma brucei [3]): moderate efficacy; reduction in liver parasite burden (LDU) versus vehicle ([8]; 50 mg kg^-1 orally b.i.d. for 5 days): 52%; EC50 (Vero cells): 5.1 µM |
| – | – | – | – | – | Cc1nn(C)c(C)c1N(C)S(=O)(=O)c1c(Cl)cc(CCCC2CCN(C)CC2)cc1Cl [compound 3] | – | EC50 ([4]; Leishmania donovani): 7.1 ± 1.1 µM; EC50 ([5]; Leishmania donovani): 8.2 ± 0.6 µM; EC50 (THP-1; [9]): > 50 µM; EC50 ([6]; Leishmania donovani): 0.07 ± 0.004 µM |
| > 50 µM | 0.03 µM | 2.7 ± 0.08 µM | 0.02 µM | 18.3 ± 0.1 µM | Cc1nn(C)c(C)c1N(C)S(=O)(=O)c1c(Cl)cc(N2CCN(C(=O)c3ccn[nH]3)CC2)cc1Cl [compound 4, 4-(4-(1H-Pyrazole-5-carbonyl)piperazin-1-yl)-2,6-dichloro-N-methyl-N-(1,3,5-trimethyl-1H-pyrazol-4-yl)benzenesulfonamide] | > 50 µM | – |
| > 50 µM | 0.08 µM | 9.2 ± 0.4 µM | 0.08 µM | 10 ± 0.4 µM | Cc1nn(C)c(C)c1N(C)S(=O)(=O)c1c(Cl)cc(N2CCN(C(=O)c3cnn(C)c3)CC2)cc1Cl [compound 5, 2,6-Dichloro-N-methyl-4-(4-(1-methyl-1H-pyrazole-4-carbonyl)piperazin-1-yl)-N-(1,3,5-trimethyl-1H-pyrazol-4-yl)benzenesulfonamide] | > 50 µM | – |
| > 50 µM | 0.06 µM | > 50 µM | 0.1 µM | > 50 µM | Cc1nn(C)c(C)c1N(C)S(=O)(=O)c1c(Cl)cc(N2CCN(C(=O)c3cn[nH]c3)CC2)cc1Cl [compound 6, 4-(4-(1H-Pyrazole-4-carbonyl)piperazin-1-yl)-2,6-dichloro-N-methyl-N-(1,3,5-trimethyl-1H-pyrazol-4-yl)benzenesulfonamide] | > 50 µM | – |
| > 50 µM | 0.1 µM | 0.3 ± 0.01 µM | 0.5 µM | 5.8 ± 0.4 µM | Cc1nn(C)c(C)c1N(C)S(=O)(=O)c1c(Cl)cc(N2CCN(C(=O)c3cccnc3)CC2)cc1Cl [compound 7, 2,6-Dichloro-N-methyl-4-(4-nicotinoylpiperazin-1-yl)-N-(1,3,5-trimethyl-1H-pyrazol-4-yl)benzenesulfonamide] | > 50 µM | – |
| > 50 µM | 0.03 µM | 5.1 ± 0.2 µM | 0.008 µM | 8.2 ± 0.5 µM | Cc1nn(C)c(C)c1N(C)S(=O)(=O)c1c(Cl)cc(N2CCN(C(=O)c3ccc(N)cc3)CC2)cc1Cl [compound 8, 4-(4-(4-Aminobenzoyl)piperazin-1-yl)-2,6-dichloro-N-methyl-N-(1,3,5-trimethyl-1H-pyrazol-4-yl)benzenesulfonamide] | > 50 µM | – |
| – | – | – | – | – | CCCCCCCCCCCCCCCCOP(=O)([O-])OCC[N+](C)(C)C [miltefosine] | – | reduction in liver parasite burden (LDU) versus vehicle ([8]; 30 mg kg^-1 orally q.d. for 5 days): 88% |
| – | – | – | – | – | O.O.O.O.O.O.O.O.O.O=C([O-])[C@@H]1[O][Sb](=[O])([O][Sb]2(=[O])[O][C@H]([C@H](O)CO)[C@H](O)[C@H](C(=O)[O-])[O]2)[O][C@H]([C@H](O)CO)[C@@H]1O.[Na+].[Na+].[Na+] (some centres unmarked) [sodium stibogluconate] | – | reduction in liver parasite burden (LDU) versus vehicle ([8]; 15 mg kg^-1 subcutaneous q.d. for 5 days): 52% |

| Compound | EC50 [4, 10] | IC50 (L. major NMT (LmNMT)) | EC50 [5, 11] | IC50 (human NMT (HsNMT)) | EC50 [6, 11] | EC50 (THP-1; [12]) | other results |
| --- | --- | --- | --- | --- | --- | --- | --- |
| Cc1nn(C)c(C)c1N(C)S(=O)(=O)c1c(Cl)cc(N2CCN(C(=O)Cc3ccccc3)CC2)cc1Cl [compound 9, 2,6-Dichloro-N-methyl-4-(4-(2-phenylacetyl)piperazin-1-yl)-N-(1,3,5-trimethyl-1H-pyrazol-4-yl)benzenesulfonamide] | 40.5 ± 13.4 µM | 10 µM | 2.2 ± 0.03 µM | 6.3 µM | 6.3 ± 0.3 µM | > 50 µM | potency against LmNMT (in words) (L. major NMT (LmNMT)): poor activity |
